Assay results reported in ChEMBL document CHEMBL4340530, “Peptide-based covalent inhibitors of MALT1 paracaspase” (Bioorg Med Chem Lett, 2019).
Activity calls are given as the source filed them. No cut-off for these calls is given here.

How the values were obtained:
[1] = biological target: Tryptase beta-2 (Homo sapiens) (UniProt P20231); assay: Inhibition of tryptase b2 (unknown origin) at 100 nM relative to control
[2] = biological target: Caspase-10 (Homo sapiens) (UniProt Q92851); assay: Inhibition of caspase-10 (unknown origin) at 10 uM
[3] = biological target: T1, Calpain1/2 (Homo sapiens) (UniProt P17655+P07384); assay: Inhibition of calpain (unknown origin) at 10 uM relative to control; type: protein assay
Trypsin (Homo sapiens) = Trypsin (Homo sapiens) (UniProt P07477+P07478+P35030); assay: Inhibition of trypsin (unknown origin) at 10 uM relative to control; type: protein assay
[4] = biological target: T2, Mucosa-associated lymphoid tissue lymphoma translocation protein 1 (Homo sapiens) (UniProt Q9UDY8); assay: Inhibition of MALT1 (unknown origin) expressed in PMA/IO-stimulated human Raji Glosensor cells by reporter gene assay; type: cell-based
T2 sequence (whole entry): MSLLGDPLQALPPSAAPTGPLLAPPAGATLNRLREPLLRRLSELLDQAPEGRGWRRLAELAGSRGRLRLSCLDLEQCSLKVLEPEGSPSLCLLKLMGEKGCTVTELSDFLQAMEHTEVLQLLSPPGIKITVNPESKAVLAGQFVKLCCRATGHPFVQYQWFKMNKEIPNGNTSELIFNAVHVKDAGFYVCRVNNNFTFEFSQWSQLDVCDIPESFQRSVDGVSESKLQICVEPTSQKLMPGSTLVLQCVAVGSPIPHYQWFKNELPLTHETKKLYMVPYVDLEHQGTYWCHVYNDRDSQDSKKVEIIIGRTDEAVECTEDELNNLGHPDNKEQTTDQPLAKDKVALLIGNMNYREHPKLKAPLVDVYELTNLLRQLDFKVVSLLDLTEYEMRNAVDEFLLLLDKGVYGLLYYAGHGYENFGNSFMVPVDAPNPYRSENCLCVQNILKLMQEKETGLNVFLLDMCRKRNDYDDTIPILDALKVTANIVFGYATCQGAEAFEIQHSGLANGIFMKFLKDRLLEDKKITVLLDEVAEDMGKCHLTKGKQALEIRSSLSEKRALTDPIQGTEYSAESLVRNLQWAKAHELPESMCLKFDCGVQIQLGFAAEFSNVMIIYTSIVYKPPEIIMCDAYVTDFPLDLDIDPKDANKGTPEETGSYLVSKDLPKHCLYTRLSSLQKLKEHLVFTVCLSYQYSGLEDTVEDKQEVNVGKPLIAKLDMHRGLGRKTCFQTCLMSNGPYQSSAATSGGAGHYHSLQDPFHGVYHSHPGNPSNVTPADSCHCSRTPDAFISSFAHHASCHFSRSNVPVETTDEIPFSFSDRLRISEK

[5] = biological target: T1, Calpain1/2 (Homo sapiens); assay: Inhibition of calpain (unknown origin) at 100 nM relative to control; type: protein assay
[6] = biological target: Tryptase beta-2 (Homo sapiens) (UniProt P20231); assay: Inhibition of tryptase b2 (unknown origin) at 10 uM relative to control
[7] = biological target: Prothrombin (Homo sapiens) (UniProt P00734); assay: Inhibition of thrombin (unknown origin) at 1 uM relative to control

T1 sequence (P07384 whole entry, looked up): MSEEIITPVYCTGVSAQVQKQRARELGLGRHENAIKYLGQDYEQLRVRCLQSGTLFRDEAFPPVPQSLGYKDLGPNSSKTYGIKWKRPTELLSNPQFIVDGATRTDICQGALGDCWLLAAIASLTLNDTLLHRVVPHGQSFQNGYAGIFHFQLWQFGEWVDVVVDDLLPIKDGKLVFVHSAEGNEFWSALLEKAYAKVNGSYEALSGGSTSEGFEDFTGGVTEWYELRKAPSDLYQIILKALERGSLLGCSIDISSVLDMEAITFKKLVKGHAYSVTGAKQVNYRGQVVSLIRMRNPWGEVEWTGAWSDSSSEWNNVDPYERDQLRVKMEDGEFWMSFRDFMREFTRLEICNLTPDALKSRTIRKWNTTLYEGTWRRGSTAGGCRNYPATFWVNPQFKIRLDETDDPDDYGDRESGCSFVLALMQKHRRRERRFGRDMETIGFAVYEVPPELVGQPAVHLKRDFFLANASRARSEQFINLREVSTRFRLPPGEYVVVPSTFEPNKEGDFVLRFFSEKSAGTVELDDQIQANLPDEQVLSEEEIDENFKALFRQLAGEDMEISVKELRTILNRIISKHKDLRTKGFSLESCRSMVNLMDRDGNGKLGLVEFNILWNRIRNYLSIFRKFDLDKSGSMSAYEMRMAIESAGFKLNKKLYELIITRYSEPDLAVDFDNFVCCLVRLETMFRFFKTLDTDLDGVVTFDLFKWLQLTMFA
T1 sequence (P17655 whole entry, looked up): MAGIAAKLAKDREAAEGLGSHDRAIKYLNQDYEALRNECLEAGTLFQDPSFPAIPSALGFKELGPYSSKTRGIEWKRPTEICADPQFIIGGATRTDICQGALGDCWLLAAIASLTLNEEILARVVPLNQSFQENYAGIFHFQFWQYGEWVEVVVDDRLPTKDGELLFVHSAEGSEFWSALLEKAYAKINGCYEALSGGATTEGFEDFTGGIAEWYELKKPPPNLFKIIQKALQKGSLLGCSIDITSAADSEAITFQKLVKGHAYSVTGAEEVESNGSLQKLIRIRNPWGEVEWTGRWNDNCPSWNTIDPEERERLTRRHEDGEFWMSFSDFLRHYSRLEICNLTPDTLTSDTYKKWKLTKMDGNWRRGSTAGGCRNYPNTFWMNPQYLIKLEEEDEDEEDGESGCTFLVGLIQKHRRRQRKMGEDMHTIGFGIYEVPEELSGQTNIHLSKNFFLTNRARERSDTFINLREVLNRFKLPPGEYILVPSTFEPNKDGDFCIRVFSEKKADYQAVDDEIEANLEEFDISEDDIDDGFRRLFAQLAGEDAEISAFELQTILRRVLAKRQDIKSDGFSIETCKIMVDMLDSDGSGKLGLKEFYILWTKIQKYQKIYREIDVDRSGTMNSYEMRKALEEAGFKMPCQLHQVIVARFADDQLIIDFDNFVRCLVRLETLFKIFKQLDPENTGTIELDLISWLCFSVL
Chain of Tryptase beta-2 (Homo sapiens) (P20231 whole entry): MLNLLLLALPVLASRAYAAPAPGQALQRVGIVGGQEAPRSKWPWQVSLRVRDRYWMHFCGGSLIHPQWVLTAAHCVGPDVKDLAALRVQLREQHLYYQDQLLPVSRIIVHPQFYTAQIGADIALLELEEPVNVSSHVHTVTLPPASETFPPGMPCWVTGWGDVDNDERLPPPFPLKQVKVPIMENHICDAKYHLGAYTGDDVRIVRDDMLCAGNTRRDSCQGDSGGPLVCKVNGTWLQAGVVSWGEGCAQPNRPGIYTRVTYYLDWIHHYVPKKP
Chain of Caspase-10 (Homo sapiens) (Q92851 220-415 limits assumed): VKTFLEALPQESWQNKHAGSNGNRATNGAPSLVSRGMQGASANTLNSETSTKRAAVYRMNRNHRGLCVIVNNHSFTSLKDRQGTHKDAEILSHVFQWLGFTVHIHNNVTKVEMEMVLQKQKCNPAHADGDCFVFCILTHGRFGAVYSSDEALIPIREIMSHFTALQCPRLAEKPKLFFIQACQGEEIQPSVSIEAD
Chain of Caspase-10 (Homo sapiens) (Q92851 416-521 limits assumed): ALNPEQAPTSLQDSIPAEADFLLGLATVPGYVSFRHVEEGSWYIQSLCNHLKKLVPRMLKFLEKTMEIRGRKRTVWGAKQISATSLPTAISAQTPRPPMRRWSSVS

- inhibition [1]: 6.1%
- inhibition [2]: Active
- inhibition [3]: 105%
- inhibition (Trypsin (Homo sapiens)): 95.3%
- IC50 [4]: 70 to 71 nM
- inhibition [5]: 23.6%
- inhibition [6]: 79%
- inhibition [7]: 25.2%
Structure (SMILES): CC(C)[C@H](NC(=O)c1ccc(Br)cc1)C(=O)N1CCC[C@H]1C(=O)N[C@@H](CCCNC(=N)N)C(=O)CF
